Laboratory results as given in US11059789B2, “Isoquinoline-steroid conjugates and uses thereof” (priority 2018, dated 2021).
Counter-ions that a name gives are not always drawn.

Experiments:
TYK2 = TYK2 (Homo sapiens (Human), UniProt P29597); assay: Kinase assay TYK2; assay type: biochemical; settings: HCl salt
Protocol: (§1) Inhibition of various kinases was assayed.

IKKb = IKKb (Homo sapiens (Human), UniProt O14920); assay: Kinase assay IKKb; assay type: biochemical; settings: HCl salt
Protocol: as §1

PTM = PTM assay; assay type: cell-based; settings: HCl salt
Protocol: as §1

NFkB = NFkB assay; assay type: cell-based; settings: HCl salt
Protocol: as §1

PKA = PKA (Homo sapiens, UniProt P17612); assay: Kinase assay PKA; assay type: biochemical; settings: HCl salt
Protocol: as §1

HTM = HTM assay; assay type: cell-based; settings: HCl salt
Protocol: as §1

in vitro = assay type: cell-based
JAK2 = JAK2 (Homo sapiens (Human), UniProt O60674); assay: Kinase assay JAK2; assay type: biochemical; settings: HCl salt
JAK2, sequence (O60674 whole entry, species assumed): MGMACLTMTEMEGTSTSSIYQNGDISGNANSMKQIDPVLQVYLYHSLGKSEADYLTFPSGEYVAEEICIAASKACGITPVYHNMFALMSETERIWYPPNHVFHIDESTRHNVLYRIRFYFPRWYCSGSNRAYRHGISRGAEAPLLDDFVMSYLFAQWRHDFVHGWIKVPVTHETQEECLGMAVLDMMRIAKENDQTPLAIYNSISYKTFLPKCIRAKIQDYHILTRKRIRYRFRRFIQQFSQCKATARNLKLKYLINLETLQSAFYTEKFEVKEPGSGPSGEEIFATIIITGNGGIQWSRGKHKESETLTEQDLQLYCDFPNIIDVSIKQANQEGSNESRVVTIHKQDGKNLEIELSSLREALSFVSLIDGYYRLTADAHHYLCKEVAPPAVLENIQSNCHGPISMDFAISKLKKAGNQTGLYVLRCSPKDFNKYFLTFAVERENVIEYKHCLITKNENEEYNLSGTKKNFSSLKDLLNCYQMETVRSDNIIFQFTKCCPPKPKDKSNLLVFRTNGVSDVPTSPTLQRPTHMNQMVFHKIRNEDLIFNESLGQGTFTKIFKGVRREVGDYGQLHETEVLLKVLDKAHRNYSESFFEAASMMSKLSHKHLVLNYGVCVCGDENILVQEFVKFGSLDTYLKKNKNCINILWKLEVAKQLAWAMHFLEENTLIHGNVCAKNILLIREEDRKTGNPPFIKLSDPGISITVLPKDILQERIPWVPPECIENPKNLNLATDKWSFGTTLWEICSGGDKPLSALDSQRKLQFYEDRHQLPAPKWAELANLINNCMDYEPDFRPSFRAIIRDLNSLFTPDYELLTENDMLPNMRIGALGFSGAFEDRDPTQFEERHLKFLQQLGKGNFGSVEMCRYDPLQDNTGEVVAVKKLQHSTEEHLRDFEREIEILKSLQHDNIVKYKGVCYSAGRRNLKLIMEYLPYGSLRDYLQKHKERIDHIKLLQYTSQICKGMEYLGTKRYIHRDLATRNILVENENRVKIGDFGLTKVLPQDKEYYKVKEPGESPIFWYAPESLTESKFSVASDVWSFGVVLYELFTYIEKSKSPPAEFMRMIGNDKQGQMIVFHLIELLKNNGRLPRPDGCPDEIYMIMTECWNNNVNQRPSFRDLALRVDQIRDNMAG

ROCK2 = ROCK2 (Homo sapiens (Human), UniProt O75116); assay: Kinase assay ROCK2; assay type: biochemical; settings: HCl salt
Protocol: as §1

PKCh = PKCh (Homo sapiens (Human), UniProt P24723); assay: Kinase assay PKCh; assay type: biochemical; settings: HCl salt
Protocol: as §1

[1] = test system: Myeloperoxidase (MPO) activity; assay: Myeloperoxidase (MPO) activity after intravitreal LPS in mice; assay type: in vivo, C57Bl6 male mice; settings: dosed at 0 and 6 hours
Protocol: Adult C57Bl6 male mice were injected with 2 ng of lipopolysaccharide (LPS) intravitreally. The mice were then dosed with vehicle, compounds or control treatments (0.07% w/w, 0.02% w/w or 0.007% w/w) at times 0 and 6 hours post-injection. Aqueous humor (AH) and vitreous humor (VH) was collected 24 hours after injection of LPS and assayed for MPO activity by ELISA. Data is a compilation of two separate experiments. Statistical analysis was carried out on GraphPad prism using a multiple comparisons 1-way ANOVA with uncorrected Dunn's test. Results are shown in FIG. 5 (aqueous humor) and FIG. 6 (vitreous humor). In FIG. 5 and FIG. 6, Dex refers to dexamethasone, Compound A refers to (S)-3-amino-2-(4-(hydroxymethyl)phenyl)-N-(isoquinolin-6-yl)propanamide, * refers to p<0.05, and ** refers to p<0.005. MPO levels correspond to levels of neutrophil infiltration. In the context of non-infectious inflammatory events, neutrophils cause robust levels of damage to tissues.

PKCe = PKCe (Homo sapiens (Human), UniProt Q02156); assay: Kinase assay PKCe; assay type: biochemical; settings: HCl salt
PKCe, sequence (Q02156 whole entry, species assumed): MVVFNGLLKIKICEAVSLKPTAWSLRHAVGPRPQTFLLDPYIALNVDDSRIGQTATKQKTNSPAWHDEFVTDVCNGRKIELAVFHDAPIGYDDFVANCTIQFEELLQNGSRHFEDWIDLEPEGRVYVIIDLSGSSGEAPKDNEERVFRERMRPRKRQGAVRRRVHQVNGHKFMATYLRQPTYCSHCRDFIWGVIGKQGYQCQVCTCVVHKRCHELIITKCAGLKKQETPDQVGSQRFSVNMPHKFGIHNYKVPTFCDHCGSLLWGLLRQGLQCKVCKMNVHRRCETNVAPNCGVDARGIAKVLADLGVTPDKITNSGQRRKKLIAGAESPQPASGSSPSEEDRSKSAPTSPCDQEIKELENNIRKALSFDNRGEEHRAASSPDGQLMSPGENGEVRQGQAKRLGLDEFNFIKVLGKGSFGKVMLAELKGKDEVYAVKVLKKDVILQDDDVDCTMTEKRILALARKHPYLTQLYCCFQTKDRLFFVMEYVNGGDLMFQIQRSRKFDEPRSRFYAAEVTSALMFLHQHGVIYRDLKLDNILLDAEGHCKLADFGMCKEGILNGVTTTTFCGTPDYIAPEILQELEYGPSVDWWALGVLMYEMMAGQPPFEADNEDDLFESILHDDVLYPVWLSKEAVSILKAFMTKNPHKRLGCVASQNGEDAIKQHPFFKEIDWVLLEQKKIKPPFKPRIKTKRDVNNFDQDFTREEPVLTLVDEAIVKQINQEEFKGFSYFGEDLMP
Protocol: as §1

ROCK1 = ROCK1 (Homo sapiens (Human), UniProt Q13464); assay: Kinase assay ROCK1; assay type: biochemical; settings: HCl salt
ROCK1, sequence (Q13464 whole entry, species assumed): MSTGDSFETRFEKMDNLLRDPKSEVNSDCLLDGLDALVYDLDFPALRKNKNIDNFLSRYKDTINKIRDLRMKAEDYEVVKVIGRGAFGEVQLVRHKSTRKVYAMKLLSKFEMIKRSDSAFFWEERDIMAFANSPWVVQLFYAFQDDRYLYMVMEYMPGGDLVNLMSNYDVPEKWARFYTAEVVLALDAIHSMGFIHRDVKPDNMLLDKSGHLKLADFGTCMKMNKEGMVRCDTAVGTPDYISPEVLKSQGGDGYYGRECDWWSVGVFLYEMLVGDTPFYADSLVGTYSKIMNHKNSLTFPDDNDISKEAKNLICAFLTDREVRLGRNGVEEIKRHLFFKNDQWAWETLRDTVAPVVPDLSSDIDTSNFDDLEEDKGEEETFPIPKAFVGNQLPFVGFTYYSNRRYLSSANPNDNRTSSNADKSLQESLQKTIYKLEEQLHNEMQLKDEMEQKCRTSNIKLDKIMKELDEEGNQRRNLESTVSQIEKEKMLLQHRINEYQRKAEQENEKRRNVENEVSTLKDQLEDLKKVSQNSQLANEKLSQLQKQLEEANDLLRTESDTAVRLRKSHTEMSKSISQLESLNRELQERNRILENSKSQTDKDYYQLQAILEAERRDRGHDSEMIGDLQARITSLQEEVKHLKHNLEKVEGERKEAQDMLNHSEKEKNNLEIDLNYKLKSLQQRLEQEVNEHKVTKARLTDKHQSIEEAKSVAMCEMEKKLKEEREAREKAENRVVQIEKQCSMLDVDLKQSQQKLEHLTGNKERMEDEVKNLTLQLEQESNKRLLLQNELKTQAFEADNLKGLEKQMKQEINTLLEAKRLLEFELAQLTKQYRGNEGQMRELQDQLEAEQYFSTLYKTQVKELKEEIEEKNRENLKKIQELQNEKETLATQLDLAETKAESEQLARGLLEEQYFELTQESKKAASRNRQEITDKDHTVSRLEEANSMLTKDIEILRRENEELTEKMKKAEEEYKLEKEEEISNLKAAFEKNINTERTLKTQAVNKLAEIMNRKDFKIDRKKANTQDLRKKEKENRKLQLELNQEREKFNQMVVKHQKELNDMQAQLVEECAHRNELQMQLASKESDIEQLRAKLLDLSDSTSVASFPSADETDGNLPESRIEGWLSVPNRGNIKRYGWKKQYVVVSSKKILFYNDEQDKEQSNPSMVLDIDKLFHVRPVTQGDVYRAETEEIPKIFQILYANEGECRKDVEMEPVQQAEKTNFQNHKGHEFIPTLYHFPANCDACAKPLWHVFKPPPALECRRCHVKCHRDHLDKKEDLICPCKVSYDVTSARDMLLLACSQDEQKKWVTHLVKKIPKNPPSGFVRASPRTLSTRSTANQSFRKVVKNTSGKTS
Protocol: as §1

AKT1 = AKT1 (Homo sapiens (Human), UniProt P31749); assay: Kinase assay AKT1; assay type: biochemical; settings: HCl salt
AKT1, sequence (P31749 whole entry, species assumed): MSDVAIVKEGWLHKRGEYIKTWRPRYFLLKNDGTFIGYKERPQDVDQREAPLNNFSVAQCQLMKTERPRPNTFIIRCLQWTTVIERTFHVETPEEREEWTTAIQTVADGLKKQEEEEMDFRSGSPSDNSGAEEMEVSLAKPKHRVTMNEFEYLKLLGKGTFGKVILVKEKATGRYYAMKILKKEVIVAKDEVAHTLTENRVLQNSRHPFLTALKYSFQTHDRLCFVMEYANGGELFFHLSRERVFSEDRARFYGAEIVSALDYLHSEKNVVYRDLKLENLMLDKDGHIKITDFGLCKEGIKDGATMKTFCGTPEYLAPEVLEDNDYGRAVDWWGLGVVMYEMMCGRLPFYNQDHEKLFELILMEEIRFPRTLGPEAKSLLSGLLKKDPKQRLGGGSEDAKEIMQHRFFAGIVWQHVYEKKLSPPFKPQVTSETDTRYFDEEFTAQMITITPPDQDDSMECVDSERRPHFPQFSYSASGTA
Protocol: as §1

JAK1 = JAK1 (Homo sapiens (Human), UniProt P23458); assay: Kinase assay JAK1; assay type: biochemical; settings: HCl salt
Protocol: as §1

JAK3 = JAK3 (Homo sapiens (Human), UniProt P52333); assay: Kinase assay JAK3; assay type: biochemical; settings: HCl salt
Protocol: as §1

PKCd = PKCd (Homo sapiens (Human), UniProt Q05655); assay: Kinase assay PKCd; assay type: biochemical; settings: HCl salt
Protocol: as §1

IKKb, sequence (O14920 whole entry, species assumed): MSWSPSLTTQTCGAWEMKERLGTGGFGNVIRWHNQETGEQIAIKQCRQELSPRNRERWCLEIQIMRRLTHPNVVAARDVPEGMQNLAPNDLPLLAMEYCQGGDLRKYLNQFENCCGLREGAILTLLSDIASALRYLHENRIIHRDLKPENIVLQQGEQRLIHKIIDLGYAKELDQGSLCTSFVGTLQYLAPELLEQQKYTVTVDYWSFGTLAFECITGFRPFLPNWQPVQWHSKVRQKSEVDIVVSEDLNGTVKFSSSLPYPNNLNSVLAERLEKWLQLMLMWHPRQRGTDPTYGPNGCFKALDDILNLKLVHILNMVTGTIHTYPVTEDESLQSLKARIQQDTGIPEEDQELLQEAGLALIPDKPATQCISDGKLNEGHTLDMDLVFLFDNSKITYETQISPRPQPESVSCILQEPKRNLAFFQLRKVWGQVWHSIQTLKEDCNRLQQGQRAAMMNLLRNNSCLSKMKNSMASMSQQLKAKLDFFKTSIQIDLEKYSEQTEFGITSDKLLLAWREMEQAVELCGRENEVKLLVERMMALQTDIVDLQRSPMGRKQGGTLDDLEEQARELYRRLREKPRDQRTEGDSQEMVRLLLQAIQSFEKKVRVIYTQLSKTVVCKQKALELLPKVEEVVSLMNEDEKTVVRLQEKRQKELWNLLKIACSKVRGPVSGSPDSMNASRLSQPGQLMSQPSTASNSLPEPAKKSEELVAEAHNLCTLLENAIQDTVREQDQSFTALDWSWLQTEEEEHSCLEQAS

Row | Compound | IC50 (TYK2) | IC50 (IKKb) | IC50 (PTM) | IC50 (NFkB) | IC50 (PKA) | IC50 (HTM) | IC50 (in vitro) | IC50 (JAK2) | IC50 (ROCK2) | IC50 (PKCh) | effect on myeloperoxidase activity in aqueous humor ([1]; aqueous humor 24 hours, FIG. 5) | effect on myeloperoxidase activity in vitreous humor ([1]; vitreous humor 24 hours, FIG. 6) | IC50 (PKCe) | IC50 (ROCK1) | IC50 (AKT1) | IC50 (JAK1) | IC50 (JAK3) | IC50 (PKCd)
1 | CC1(C)O[C@@H]2C[C@H]3[C@@H]4CCC5=CC(=O)C=C[C@]5(C)[C@@]4(F)[C@@H](O)C[C@]3(C)[C@]2(C(=O)COC(=O)CCC(=O)OCc2ccc([C@@H](CN)C(=O)Nc3ccc4cnccc4c3)cc2)O1 [Example 33] | 50 µM | 40.1 µM | 0.075 µM | 0.103 µM | 0.081 µM | 0.004 µM | 55.2 µM | 42.4 µM | 0.014 µM | 0.145 µM | inhibiting effect | inhibiting effect | 1.57 µM | 0.021 µM | 1.24 µM | 50 µM | 30.1 µM | 0.142 µM
2 | C[C@@H]1C[C@H]2[C@@H]3CCC4=CC(=O)C=C[C@]4(C)[C@@]3(F)[C@@H](O)C[C@]2(C)[C@@]1(O)C(=O)COC(=O)C[C@H](N)C(=O)OCc1ccc([C@@H](CN)C(=O)Nc2ccc3cnccc3c2)cc1 [Example 83, 1-(4-((S)-3-amino-1-(isoquinolin-6-ylamino)-1-oxopropan-2-yl)benzyl) 4-(2-((8S,9R,10S,11S,13S,14S,16R,17R)-9-fluoro-11,17-dihydroxy-10,13,16-trimethyl-3-oxo-6,7,8,9,10,11,12,13,14,15,16,17-dodecahydro-3H-cyclopenta[a]phenanthren-17-yl)-2-oxoethyl) L-aspartate trihydrochloride] | 50 µM | 19.2 µM | 0.043 µM | 0.055 µM | 0.029 µM | 0.025 µM | 100 µM | 22 µM | 0.009 µM | 0.051 µM |  |  | 0.154 µM | 0.011 µM | 0.095 µM | 34.7 µM | 7.73 µM | 0.056 µM
